Measurements reported in US20060148057A1, “Thioredoxin mutants and uses thereof” (priority 2002, published 2006).
Values belong to the compound of their own block, whether it stands above or below them.

How the values were obtained:
ASK1 [1] = test: TNF-induced ASK1 activation in BAEC, in vitro kinase assay with GST-MKK4; format: cell-based, Bovine; conditions: Nac 1 mM pretreatment, TNF-α 10 ng/ml 15 min; n=3, p<0.01
Experimental: J Immunol. 159:3508-18 (1997)) using GST-MKK4 and GST-c-Jun (1-80) fusion protein as a substrate, respectively. Briefly, total 400 μg cell lysates were immunoprecipitated with 5 μg of antibody against ASK1 or JNK1 (Santa Cruz). The immunoprecipitates were mixed with 10 μg GST-MKK4 or GST-c-Jun (1-80) suspended in the kinase buffer (20 mM Hepes, pH 7.6, 20 mM MgCl2, 25 mM β-glycerophosphate, 100 μM sodium orthovanadate, 2 mM DTT, 20 μM ATP) containing 1 μl (10 μCi) of [γ-32P] ATP. The kinase assay was performed at 25° C. for 30 min. The reaction was terminated by the addition of Laemmli sample buffer and the phosphorylated GST-MKK4 or GST-c-Jun (1-80) was visualized by autoradiography.
TNF dissociates wild type Trx but not Trx-C32S or Trx-C35Sfroin ASK1 in vivo. Trx-C32S and Trx-C35S were examiner to determine whether they constitutively bind to ASK1 in vivo. Regulation of ASK1 by Trx was first examined to determine if such regulation is ROS-dependent in EC. BAEC were either untreated or treated with N-acetyl-cysteine (Nac, 1 mM) or vehicle for 60 min prior to TNF-α (10 ng/ml) stimulation for 15 min. TNF-induced ASK1 activation was measured by an in vitro kinase assay using GST-MKK4 (JNKK1) fusion protein as a substrate. TNF activated ASK1 in EC (FIG. 5A). […] Association of ASK1 with Trx was easily detected in untreated EC cells (FIG. 5B, Ctrl). […]

ASK1 [2] = test: Association of Trx with ASK1 in vivo in BAEC (co-immunoprecipitation); format: binding, Bovine; conditions: endogenous proteins, IP anti-Trx / Western anti-ASK1; Nac pretreatment then TNF
Experimental: Immunoprecipitation and immunoblotting EC after various treatments were washed twice with cold PBS and lysed in 1.5 ml of cold lysis buffer (50 mM Tris-HC, pH 7.6, 150 mM NaCl, 0.1% Triton X-100, 0.75% Brij 96, 10 μg/ml aprotinin, 10 μg/ml leupeptin, 2 mM PMSF, 1 mM EDTA) for 20 min on ice. Protein concentrations were determined with a Bio-Rad kit. For immunoprecipitation to analyze protein interaction in vivo, 400 μg of cell lysate supematant were incubated with 5 μg of the first protein-specific antiserum (e.g. anti-Trx from Medical & Biological Laboratory) for 2 h with 50 μl of GammaBind plus Sepharose. Immune complexes were collected after each immunoprecipitation by centrifugation at 14,000× g for 10 min followed by 4 washes with lysis buffer. The immune complexes were subjected to Western blot with the second protein (e.g., ASK1)-specific antibody (Santa Cruz Biotech, Santa Cruz, Calif.). The chemiluminescence was detected using an ECL kit according to the instructions of the manufacturer (Amersham Life Science, Arlington Heights, Ill.). […]
TNF dissociates wild type Trx but not Trx-C32S or Trx-C35Sfroin ASK1 in vivo. […] TNF-induced ASK1 activation was measured by an in vitro kinase assay using GST-MKK4 (JNKK1) fusion protein as a substrate. […] Association of ASK1 with Trx was easily detected in untreated EC cells (FIG. 5B, Ctrl). […]

caspase 3 = test: ASK1-induced caspase 3 activity assay in BAEC (Ac-DEVD-AMC substrate); format: cell-based, Bovine; conditions: 100 μM inhibitor in lysate assay
Experimental: Caspase 3 activity assay: Caspase 3 activity was measured with a Caspase 3 fluorescence kit (Sigma) according to the Manufacturer's protocol. Briefly, BAEC were harvested in Caspase 3 lysis buffer (25 mM Hepes, pH 7.4, 5 mM CHAPS, 5 mM DTT) and incubated on ice for 15-20 min followed by a centrifugation at 14,000× g for 10-15 min at 4° C. For each reaction, 5 μl (200 μg) of cell lysate was incubated with 200 μl of 16 μM Caspase 3 peptide substrate acetyl-ASP-Glu-Val-Asp-7 amido-4-methylcoumarin (Ac-DEVD-AMC) in the assay buffer (25 mM Hepes, pH 7.4, 5 mM EDTA, 0.1% CHAPS, 5 mM DTT) in the presence or absence of 100 μM Caspase 3 inhibitor (Ac-DEVD-CHO). The reaction was incubated in the dark for 1-1.5 h and fluorescence was measured in a fluorescence plate reader. The measured fluorescence was used as an arbitrary unit.
Then the effects. of Trx on ASK1-induced caspase 3 activation, a hallmark of the execution of apoptotic cell death (Green D R. Apoptotic pathways: paper wraps stone blunts scissors. Cell. 102:1-4 (2000); Hengartner MO. The biochemistry of apoptosis. Nature. 407:770-6 2000)) was examined. Caspase 3 activity was determined by an in vitro assay using peptide substrate acetyl-ASP-Glu-Val-Asp-7 amido-4-methylcounarin (Ac-DEVD-AMC). Overexpression of ASK1 in BAEC increased caspase 3 activity compared to the control cells (FIG. 6B).

adult rat cardiomyocytes = test: Twitch amplitude of field-stimulated adult rat cardiac myocytes; conditions: 100 μM H2O2, field stimulated at 1 Hz, n=15
[3] = system: neonatal rat cardiomyocytes; conditions: 100 μM H2O2, 15 min post-treatment

Compound: CC(=O)N[C@@H](CS)C(=O)O [Nac, N-acetyl-cysteine, reference compound]
inhibition of TNF-stimulated ASK1 activity (ASK1 [1]): 70% | TNF-induced dissociation of ASK1 from Trx (ASK1 [2]): prevented

caspase 3 activity in presence of caspase 3 inhibitor (caspase 3): specifically inhibited
Compound: Ac-DEVD-CHO [reference compound]

Compound: OO [Trx H2O2, Hydrogen peroxide]
time to complete inhibition of twitch (adult rat cardiomyocytes): 2.38 ± 018 min | spontaneous beating of neonatal cardiomyocytes [3]: completely inhibited
